Here are results for 30 compounds from US10106542B2, “Substituted 6,7-dihydropyrazolo[1,5-a]pyrazines as negative allosteric modulators of mGluR2 receptors” (Janssen Pharmaceutica NV, priority 2013, dated 2018).

One data set concerns the target T1, human mGlu2 receptor (Homo sapiens, UniProt Q14416).
T1 construct: expressed in transfected cells; host or cells: CHO cells (membrane preparation)
Put plainly: [35S]GTPγS binding assay (mGluR2 negative allosteric modulation). It counts as biochemical. The conditions noted are these: for IC50: membranes from CHO cells transfected with human mGlu2 receptor, glutamate 60 μM, pIC50 = −log IC50 (M), read-out: GTPγS - hmGluR2 anGT pIC50 (converted); for Emax: relative maximal effect: maximal % inhibition relative to the control glutamate response, read-out: GTPγS - hmGluR2 anGT Emax. The method in brief:
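Membranes from butyrate-stimulated CHO cells expressing human mGlu2; 7 μg protein in HEPES pH 7.4, 100 mM NaCl, 3 mM MgCl2, 10 μM GDP, 10 μg/ml saponin. Compound tested against EC80-equivalent glutamate; 0.1 nM [35S]GTPγS, 30 min, 30 °C; filtration, scintillation counting. Data as % of control glutamate response.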

T1 sequence (Q14416 19-872): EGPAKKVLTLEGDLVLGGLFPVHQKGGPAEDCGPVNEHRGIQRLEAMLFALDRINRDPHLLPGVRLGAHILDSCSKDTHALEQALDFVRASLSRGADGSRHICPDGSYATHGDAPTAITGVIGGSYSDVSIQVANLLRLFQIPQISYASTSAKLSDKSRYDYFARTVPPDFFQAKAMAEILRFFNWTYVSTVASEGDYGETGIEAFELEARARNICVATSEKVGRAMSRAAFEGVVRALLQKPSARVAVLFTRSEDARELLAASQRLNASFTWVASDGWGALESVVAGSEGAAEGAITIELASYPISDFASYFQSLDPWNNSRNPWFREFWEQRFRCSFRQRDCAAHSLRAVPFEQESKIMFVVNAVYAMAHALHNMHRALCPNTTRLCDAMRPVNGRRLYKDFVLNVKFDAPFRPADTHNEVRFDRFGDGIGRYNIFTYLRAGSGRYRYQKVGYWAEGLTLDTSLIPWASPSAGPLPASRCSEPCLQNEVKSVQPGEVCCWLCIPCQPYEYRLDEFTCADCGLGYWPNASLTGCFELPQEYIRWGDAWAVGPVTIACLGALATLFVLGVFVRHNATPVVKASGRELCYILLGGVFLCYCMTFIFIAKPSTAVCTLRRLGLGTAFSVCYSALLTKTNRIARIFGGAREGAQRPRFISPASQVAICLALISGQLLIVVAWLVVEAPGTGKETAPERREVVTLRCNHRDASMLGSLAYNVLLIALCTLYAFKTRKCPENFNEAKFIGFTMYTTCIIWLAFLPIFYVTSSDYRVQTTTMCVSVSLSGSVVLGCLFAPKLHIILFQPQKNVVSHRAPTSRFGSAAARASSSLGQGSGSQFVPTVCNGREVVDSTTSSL

A word on the melting point: it is the temperature, or range, at which the solid turns liquid. The term Emax denotes the size of the effect at its maximum, as opposed to the concentration needed. With `Cc1cc(-c2cnn3c2C(=O)N(c2ccc(C(F)(F)F)cc2)C[C@@H]3C)cnc1C` [compound 29], the melting point is 140.8 °C. Besides, at human mGlu2 receptor, the IC50 was 2.29e-07 M and the Emax was found to be 102%.
In the same order, the values of `CCOc1cc(N2C[C@H](C)n3ncc(-c4cc(C)nc(C)c4)c3C2=O)ccc1C(F)(F)F` [compound 49] are 183.9 °C, 8.71e-09 M and 103%.
In turn, `C[C@H]1CN(c2ccc(C(F)(F)F)cc2)C(=O)c2c(-c3ccc(N4CCNCC4)nc3)cnn21` [compound 176, (7S)-7-Methyl-3-(6-piperazin-1-yl-3-pyridyl)-5-[4-(trifluoromethyl)phenyl]-6,7-dihydropyrazolo[1,5-a]pyrazin-4-one] had a melting point greater than 300 °C. Besides, at human mGlu2 receptor, the IC50 is 6.31e-06 M and the Emax amounted to 85%.
On to `C[C@H]1CN(c2ccc(Cl)c(C(F)(F)F)c2)C(=O)c2c(-c3ccncc3)cnn21` [compound 68], for which the melting point is greater than 300 °C. At human mGlu2 receptor, the IC50 is 7.08e-08 M and the maximal effect (Emax) was found to be 100%.
Taken in the same sequence, the figures for `C[C@H]1CN(c2ccc(C(F)(F)F)c(C#N)c2)C(=O)c2c(-c3ccncc3)cnn21` [compound 155] were 101.8 °C, 8.13e-08 M and 103%.
As to `C[C@H]1CN(c2ccc(C(F)(F)F)c(F)c2)C(=O)c2c(-c3ccncc3)cnn21` [compound 60], the melting point came out at 163.8 °C. Further, at human mGlu2 receptor, the IC50 was 3.16e-08 M and the Emax was 101%.
In turn, `C[C@H]1CN(c2ccc(C(F)(F)F)cc2)C(=O)c2c(-c3ccc(N)nc3)cnn21` [compound 37] showed a melting point of 254 °C. In addition, at human mGlu2 receptor, the IC50 was 9.77e-07 M and the Emax is 99%.
Taken in the same sequence, the figures for `Cc1cc(-c2cnn3c2C(=O)N(c2ccc(C(F)(F)F)c(Cl)n2)C[C@@H]3C)ccn1` [compound 188, (7S)-5-[6-chloro-5-(trifluoromethyl)-2-pyridyl]-7-methyl-3-(2-methyl-4-pyridyl)-6,7-dihydropyrazolo[1,5-a]pyrazin-4-one] were 161.4 °C, 4.07e-09 M and 108%.
For the compound `CC(C)Nc1cc(-c2cnn3c2C(=O)N(c2ccc(C(F)(F)F)cc2)C[C@@H]3C)ccn1` [compound 266], the melting point turned out to be 173.08 °C. In addition, on human mGlu2 receptor, the IC50 was 5.25e-08 M and the Emax turned out to be 106%.
`C[C@H]1CN(c2ccc(Cl)c(Cl)c2)C(=O)c2c(-c3ccnc(C#N)c3)cnn21` [compound 109] showed a melting point of 149.8 °C. On human mGlu2 receptor, the IC50 is 1.86e-08 M and the Emax was determined as 107%.
As to `CN(C)c1cc(-c2cnn3c2C(=O)N(c2ccc(Cl)c(Cl)c2)CC3CF)ccn1` (single isomer, unassigned) [compound 90], the melting point turned out to be 93.7 °C. For the same compound, at human mGlu2 receptor, the IC50 is 3.09e-09 M and the Emax was found to be 103%.
In the same order, the values of `C[C@H]1CN(c2ccc(S(F)(F)(F)(F)F)cc2)C(=O)c2c(-c3ccncc3)cnn21` [compound 56] are 199 °C, 1.62e-08 M and 102%.
For the compound `Cc1cc(-c2cnn3c2C(=O)N(c2cc(F)c(C(F)(F)F)c(F)c2)C[C@@H]3C)ccn1` [compound 132], the melting point was found to be 148 °C. Moreover, on human mGlu2 receptor, the IC50 is 2.4e-08 M and the Emax was 103%.
In the same order, the values of `CCOc1cc(N2C[C@H](C)n3ncc(-c4ccncc4)c3C2=O)ccc1C(F)(F)F` [compound 55] are 104.2 °C, 1.62e-08 M and 104%.
`Cc1cc(-c2cnn3c2C(=O)N(c2ccc(C(F)F)cc2)C[C@@H]3C)ccn1` [compound 162]: the melting point is 185.9 °C. On human mGlu2 receptor, the IC50 was 1.29e-07 M and the maximum response (Emax) is 102%.
The compound `CC(C)c1cc(-c2cnn3c2C(=O)N(c2ccc(Cl)c(Cl)c2)C[C@@H]3C)ccn1` [compound 124] yielded a melting point of 62.4 °C. At human mGlu2 receptor, the IC50 was 3.02e-09 M and the Emax was 108%.
Compound `CCOc1cc(-c2cnn3c2C(=O)N(c2ccc(C(F)(F)F)cc2)C[C@@H]3C)ccn1` [compound 123] registered a melting point of 189.5 °C. At human mGlu2 receptor, the IC50 was 6.61e-09 M and the maximal effect (Emax) turned out to be 107%.
`C[C@H]1CN(c2ccc(Cl)c(Cl)c2)C(=O)c2c(-c3ccncc3)cnn21` [compound 57] displayed a melting point of 153.2 °C. For the same compound, on human mGlu2 receptor, the IC50 is 1.29e-08 M and the Emax was 104%.
Taken in the same sequence, the figures for `CC(O)c1cc(-c2cnn3c2C(=O)N(c2ccc(C(F)(F)F)cc2)C[C@@H]3C)ccn1` (stereo partly drawn) [compound 128] were 139.8 °C, 5.89e-07 M and 104%.
In the same order, the values of `CNc1cc(-c2cnn3c2C(=O)N(c2ccc(C(F)(F)F)c(OC)c2)C[C@@H]3C)ccn1` [compound 183] are 125.6 °C, 2.29e-08 M and 103%.
In the same order, the values of `Cc1cc(-c2cnn3c2C(=O)N(c2ccc(C(F)(F)F)c(F)c2)C[C@@H]3C)cc(C)n1` [compound 61] are 73.3 °C, 2.82e-08 M and 106%.
Regarding `Cc1cc(-c2cnn3c2C(=O)N(c2ccc(OCC(F)(F)F)cc2)C[C@@H]3C)ccn1` [compound 160], the melting point is 129.5 °C. At human mGlu2 receptor, the IC50 was 1.07e-07 M and the Emax came out at 106%.
In the same order, the values of `C[C@H]1CN(c2ccc(Cl)c(Cl)c2)C(=O)c2c(-c3ccnc(C(F)F)c3)cnn21` [compound 114] are 177.6 °C, 7.08e-09 M and 104%.
In the same order, the values of `Cc1cc(-c2cnn3c2C(=O)N(c2ccc(C(F)(F)F)c(C#N)c2)C[C@@H]3C)cc(C)n1` [compound 59] are 214.1 °C, 3.55e-08 M and 98%.
For the compound `Cc1cc(-c2cnn3c2C(=O)N(c2ccc(Cl)c(C(F)(F)F)c2)C[C@@H]3C)cc(C)n1` [compound 54], the melting point was determined as 205.1 °C. Also, at human mGlu2 receptor, the IC50 is 1.05e-08 M and the maximal response (Emax) is 105%.
Taken in the same sequence, the figures for `Cc1cc(-c2cnn3c2C(=O)N(c2ccc(OC(F)F)cc2)C[C@@H]3C)ccn1` [compound 27] were 137.1 °C, 1.38e-07 M and 104%.
The compound `COc1ccc(-c2cnn3c2C(=O)N(c2ccc(C(F)(F)F)cc2)C[C@@H]3C)cn1` [compound 150] gave a melting point greater than 300 °C. At human mGlu2 receptor, the IC50 was 4.68e-07 M and the maximal response (Emax) was determined as 103%.
Taken in the same sequence, the figures for `Cc1cc(-c2cnn3c2C(=O)N(c2cc(Cl)cc(Cl)c2)C[C@@H]3C)ccn1` [compound 159] were 71.5 °C, 1.35e-08 M and 104%.
In the same order, the values of `CCOc1nc(N2C[C@H](C)n3ncc(-c4ccncc4)c3C2=O)ccc1C(F)(F)F` [compound 208] are 141.3 °C, 2.24e-08 M and 107%.
For the compound `C[C@H]1CN(c2ccc(C(F)(F)F)cc2)C(=O)c2c(-c3ccnc(N4CCCC4)c3)cnn21` [compound 105], the melting point came to 124 °C. Moreover, on human mGlu2 receptor, the IC50 is 2.75e-08 M and the Emax stood at 108%.
